# From doi:10.1101/2020.12.20.110478v1 (biorxiv, 2020)
# What was measured:
# human GlyT1 (hGlyT1) [1] = biological target: T1, human GlyT1 (hGlyT1) (Homo sapiens, UniProt P48067); assay: [3H]Org24598 membrane competition, filtration; type: binding
# T1 sequence (P48067 1-706): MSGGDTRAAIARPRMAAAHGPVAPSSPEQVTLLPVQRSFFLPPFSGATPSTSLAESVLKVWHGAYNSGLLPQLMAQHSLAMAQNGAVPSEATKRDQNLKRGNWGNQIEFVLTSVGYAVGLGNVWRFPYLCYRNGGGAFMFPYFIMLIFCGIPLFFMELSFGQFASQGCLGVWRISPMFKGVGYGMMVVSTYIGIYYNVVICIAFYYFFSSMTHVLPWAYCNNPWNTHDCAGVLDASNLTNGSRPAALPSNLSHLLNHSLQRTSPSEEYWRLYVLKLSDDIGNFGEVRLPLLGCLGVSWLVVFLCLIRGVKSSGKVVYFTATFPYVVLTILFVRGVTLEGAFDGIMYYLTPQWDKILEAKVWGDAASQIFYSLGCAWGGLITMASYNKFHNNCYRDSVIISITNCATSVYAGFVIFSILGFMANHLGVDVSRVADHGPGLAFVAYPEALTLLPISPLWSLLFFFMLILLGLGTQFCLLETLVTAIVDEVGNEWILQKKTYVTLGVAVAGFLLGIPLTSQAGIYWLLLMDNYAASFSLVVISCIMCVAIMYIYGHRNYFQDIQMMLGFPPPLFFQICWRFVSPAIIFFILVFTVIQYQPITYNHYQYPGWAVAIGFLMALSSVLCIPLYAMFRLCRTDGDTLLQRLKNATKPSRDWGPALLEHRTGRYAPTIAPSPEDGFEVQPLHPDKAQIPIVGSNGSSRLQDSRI
# human GlyT1 (hGlyT1) [2] = biological target: T1, human GlyT1 (hGlyT1); assay: [3H]glycine uptake inhibition in Flp-in-CHO cells; type: cell-based
# GlyT1^minimal = biological target: T2, GlyT1^minimal (Homo sapiens, UniProt P48067); assay: CPM thermofluor; type: binding; conditions: 10 uM Cmpd1; 0.73 uM protein; pH 7.5; LMNG
# T2 sequence (P48067 91-684): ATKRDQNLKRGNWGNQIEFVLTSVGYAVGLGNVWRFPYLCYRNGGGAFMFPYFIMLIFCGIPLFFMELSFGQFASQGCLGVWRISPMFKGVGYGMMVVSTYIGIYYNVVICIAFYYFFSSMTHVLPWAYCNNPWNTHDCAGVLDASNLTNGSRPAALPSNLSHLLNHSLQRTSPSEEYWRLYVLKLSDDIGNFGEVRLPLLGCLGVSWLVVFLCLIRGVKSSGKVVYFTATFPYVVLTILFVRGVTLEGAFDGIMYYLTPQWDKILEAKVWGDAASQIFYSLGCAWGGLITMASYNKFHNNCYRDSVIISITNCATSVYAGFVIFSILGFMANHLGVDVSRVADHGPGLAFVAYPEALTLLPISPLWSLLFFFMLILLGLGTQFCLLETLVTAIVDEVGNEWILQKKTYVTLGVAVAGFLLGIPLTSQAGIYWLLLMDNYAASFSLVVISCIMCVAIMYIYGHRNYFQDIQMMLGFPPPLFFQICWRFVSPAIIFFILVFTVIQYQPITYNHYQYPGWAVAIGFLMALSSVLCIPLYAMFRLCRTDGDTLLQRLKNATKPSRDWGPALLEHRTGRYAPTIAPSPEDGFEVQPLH
compound,measurement,setting,value
CS(=O)(=O)c1ccc(OCC(F)(F)C(F)(F)F)c(C(=O)N2Cc3ccc(OC4CCOCC4)cc3C2)c1 [Cmpd1],IC50,human GlyT1 (hGlyT1) [1],0.0125 µM
same,IC50,human GlyT1 (hGlyT1) [2],0.0264 µM
same,increase in melting point,GlyT1^minimal,30.5 °C
